Values quoted from earlier work, collected in US20240130371A1, “ENVIRONMENTAL PROTECTION SYSTEMS AND METHODS OF GREENHOUSE GAS CAPTURE VIA CALCIUM HYDROXIDE” (priority 2021, published 2024).

Conditions: common coronavirus killers

## CC(C)O [isopropyl alcohol]
  pH: around 8
